Test results from ChEMBL document CHEMBL2177041, “Identification of new potent GPR119 agonists by combining virtual screening and combinatorial chemistry” (J Med Chem, 2012).

What follows are molecules tested against T1, Glucose-dependent insulinotropic receptor (Homo sapiens) (UniProt Q8TDV5) (assay: Intrinsic activity at human GPR119 expressed in MIN6 cells assessed as intracellular cAMP level after 45 mins by ALPHAscreen cAMP assay relative to N-(4-methanesulfonylphenyl)-5-nitro-6-[4-(phenylsulfanyl)piperidin-1-yl]pyrimidin-4-amine).
T1 sequence (whole entry): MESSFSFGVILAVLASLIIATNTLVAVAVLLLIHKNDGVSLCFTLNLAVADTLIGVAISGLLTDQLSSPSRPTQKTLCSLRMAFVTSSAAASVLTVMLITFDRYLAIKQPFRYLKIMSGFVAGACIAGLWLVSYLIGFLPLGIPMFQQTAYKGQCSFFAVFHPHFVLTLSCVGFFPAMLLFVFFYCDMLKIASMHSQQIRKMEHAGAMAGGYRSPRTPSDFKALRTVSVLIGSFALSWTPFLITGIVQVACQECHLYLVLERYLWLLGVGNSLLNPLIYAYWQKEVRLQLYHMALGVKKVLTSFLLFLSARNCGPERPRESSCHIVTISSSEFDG
Type: functional, cell-based

SMILES | Intrinsic activity
C[S+]([O-])c1cc(F)c(NC(=O)C2=NOC3(CCN(c4nc(-c5ccccc5)no4)CC3)C2)cc1F (stereo not drawn) | 160%
N#Cc1cc(F)c(NC(=O)C2=NOC3(CCN(c4nc(-c5ccccc5)no4)CC3)C2)cc1F | 173%
CC(C)(C)OC(=O)N1CCC2(CC1)CC(C(=O)Nc1cc(F)c(C#N)cc1F)=NO2 | 170%
CC(C)(C)OC(=O)N1CCC2(CCN(C(=O)Nc3ccc(S(C)(=O)=O)cc3Br)CC2)CC1 | 165%

These molecules were tested against T2, Glucose-dependent insulinotropic receptor (Homo sapiens, UniProt Q8TDV5) (assay: Agonist activity at human GPR119 expressed in MIN6 cells assessed as intracellular cAMP level after 45 mins by ALPHAscreen cAMP assay).
T2 sequence (Q8TDV5 whole entry): T1 sequence (whole entry)
Type: functional, cell-based

SMILES | EC50
C[S+]([O-])c1cc(F)c(NC(=O)C2=NOC3(CCN(c4nc(-c5ccccc5)no4)CC3)C2)cc1F (stereo not drawn) | 0.021 µM
N#Cc1cc(F)c(NC(=O)C2=NOC3(CCN(c4nc(-c5ccccc5)no4)CC3)C2)cc1F | 0.03 µM
CC(C)(C)OC(=O)N1CCC2(CC1)CC(C(=O)Nc1cc(F)c(C#N)cc1F)=NO2 | 0.093 µM
CC(C)(C)OC(=O)N1CCC2(CCN(C(=O)Nc3ccc(S(C)(=O)=O)cc3Br)CC2)CC1 | 0.8 µM
